This passage reports IC50, GI50 and inhibition results from patent US8309546B2, “Morpholinopurine derivatives” (Daiichi Sankyo Company, Limited, priority 2008, dated 2012).

One assay addresses PI3Kα (Homo sapiens, UniProt P42336). The assay is described as follows: PI3K kinase activity inhibition assay. The format is biochemical. The settings on record: Kinase-Glo Plus ATP detection, read-out: IC50 against PI3K. In a few lines: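 PI3Kα (50 nM solution) was reacted with 30 μM ATP and 45 μM PIP2 solutions, each in HEPES pH 7.4 with MgCl2 and DTT, for 2 h at room temperature. Remaining ATP was measured by Kinase-Glo Plus luminescence, and inhibition was derived from ATP consumed. IC50 was taken from curve fitting of the serial dilutions.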
Background: Kinase-Glo reads ATP consumption through a luciferase reaction.

In assay [1] the test system is human ovary cancer cell strain IGROV1. The assay is described as follows: Cell growth inhibition test (MTT), IGROV1. The format is cell-based. The settings on record: IGROV-1, 72 h, IGROV1, 3 days culture, read-out: concentration exhibiting anti-cell effect (GI50). In a few lines: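 Each cell strain is exposed to serially diluted compound for 3 days (37° C, 5% CO2), added one day after seeding at 5000 (AN3CA, HT29) or 1000 (IGROV1) cells/well. Living cells are quantified by MTT reduction over 4 h, absorbance at 540 nm, giving GI50 at 50% growth rate.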

For assay [2], the system named is S6 (serine 235 and 236) phosphorylation in AN3CA tumor. Put plainly: S6 phosphorylation inhibition assay in xenograft. In kind it is in vivo, female nude mouse. The following applies: Mus musculus, AN3-CA, oral, 6 hr after dosing. Here is the method:
A tumor section was prepared from a human endometrial cancer cell strain AN3CA tumor mass formed in a female nude mouse as subcutaneously transplanted tumor and a xenograft model was prepared by subcutaneously transplanting the tumor to a female nude mouse. The test compound at a predetermined concentration was orally administered. After a predetermined time, the anesthetized mouse was exsanguinated to death, and a tumor mass was isolated. The tumor mass was crushed using a lysis buffer containing inhibitors of proteases and dephosphorylating enzymes (Cell Signaling Technology, Inc.) and the supernatant was separated by centrifugation to obtain a tumor extract. The protein content of the tumor extract was measured using DC Protein Assay Kit (Bio-Rad Laboratories, Inc.) and phosphorylation conditions of Akt (threonine 308) and S6 (serine 235 and 236) were analyzed by a usual technique of western blotting using tumor extracts containing the same amount of protein. The primary antibody and the secondary antibody used for detecting each molecule were rabbit anti-phospho-Akt(T308) antibody and HRP-labeled goat anti-rabbit IgG antibody or mouse anti-phospho-S6(S235/236) antibody and HRP-labeled sheep anti-mouse IgG antibody.
The signal intensity detected using an image analyzer Typhoon 9400 (GE Healthcare) was quantified, and the phosphorylation inhibition rate (%) was calculated by the following formula. Phosphorylation inhibitory activity (%) of Akt and S6 after treatment with test compound=100−100×(B/A) A: Signal intensity derived from phosphorylated protein in tumor mass isolated from mouse untreated with test compound B: Signal intensity derived from phosphorylated protein in tumor mass isolated from mouse treated with test compound

PI3Kα, sequence (P42336 whole entry, species assumed): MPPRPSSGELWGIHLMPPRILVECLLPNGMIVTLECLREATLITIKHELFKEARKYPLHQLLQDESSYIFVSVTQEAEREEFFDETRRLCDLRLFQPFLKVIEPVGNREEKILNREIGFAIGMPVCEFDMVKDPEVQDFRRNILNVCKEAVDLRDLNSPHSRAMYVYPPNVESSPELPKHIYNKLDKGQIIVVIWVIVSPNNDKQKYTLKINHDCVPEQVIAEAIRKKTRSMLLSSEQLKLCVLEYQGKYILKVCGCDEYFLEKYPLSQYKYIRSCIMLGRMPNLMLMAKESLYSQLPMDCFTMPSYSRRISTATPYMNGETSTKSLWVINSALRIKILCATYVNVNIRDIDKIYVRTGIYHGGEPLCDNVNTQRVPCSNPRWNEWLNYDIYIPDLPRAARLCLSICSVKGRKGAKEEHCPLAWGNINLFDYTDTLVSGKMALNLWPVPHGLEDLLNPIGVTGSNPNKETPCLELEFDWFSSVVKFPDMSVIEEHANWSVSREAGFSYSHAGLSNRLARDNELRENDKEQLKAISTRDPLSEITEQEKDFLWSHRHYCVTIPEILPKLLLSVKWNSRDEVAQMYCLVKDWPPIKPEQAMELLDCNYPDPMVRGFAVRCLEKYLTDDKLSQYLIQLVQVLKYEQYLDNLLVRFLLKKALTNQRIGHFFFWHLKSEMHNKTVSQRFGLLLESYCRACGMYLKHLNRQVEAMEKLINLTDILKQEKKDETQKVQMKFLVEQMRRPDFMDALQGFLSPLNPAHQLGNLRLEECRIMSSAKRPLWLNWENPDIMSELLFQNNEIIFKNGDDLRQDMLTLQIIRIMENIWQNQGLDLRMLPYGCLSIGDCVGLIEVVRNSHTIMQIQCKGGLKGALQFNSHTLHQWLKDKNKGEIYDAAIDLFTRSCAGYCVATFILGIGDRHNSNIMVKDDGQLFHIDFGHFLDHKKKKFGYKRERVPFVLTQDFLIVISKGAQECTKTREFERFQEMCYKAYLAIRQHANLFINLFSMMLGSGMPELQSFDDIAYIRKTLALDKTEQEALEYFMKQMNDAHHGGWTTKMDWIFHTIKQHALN
PI3Kα, sequence (P27986 whole entry partner, species assumed): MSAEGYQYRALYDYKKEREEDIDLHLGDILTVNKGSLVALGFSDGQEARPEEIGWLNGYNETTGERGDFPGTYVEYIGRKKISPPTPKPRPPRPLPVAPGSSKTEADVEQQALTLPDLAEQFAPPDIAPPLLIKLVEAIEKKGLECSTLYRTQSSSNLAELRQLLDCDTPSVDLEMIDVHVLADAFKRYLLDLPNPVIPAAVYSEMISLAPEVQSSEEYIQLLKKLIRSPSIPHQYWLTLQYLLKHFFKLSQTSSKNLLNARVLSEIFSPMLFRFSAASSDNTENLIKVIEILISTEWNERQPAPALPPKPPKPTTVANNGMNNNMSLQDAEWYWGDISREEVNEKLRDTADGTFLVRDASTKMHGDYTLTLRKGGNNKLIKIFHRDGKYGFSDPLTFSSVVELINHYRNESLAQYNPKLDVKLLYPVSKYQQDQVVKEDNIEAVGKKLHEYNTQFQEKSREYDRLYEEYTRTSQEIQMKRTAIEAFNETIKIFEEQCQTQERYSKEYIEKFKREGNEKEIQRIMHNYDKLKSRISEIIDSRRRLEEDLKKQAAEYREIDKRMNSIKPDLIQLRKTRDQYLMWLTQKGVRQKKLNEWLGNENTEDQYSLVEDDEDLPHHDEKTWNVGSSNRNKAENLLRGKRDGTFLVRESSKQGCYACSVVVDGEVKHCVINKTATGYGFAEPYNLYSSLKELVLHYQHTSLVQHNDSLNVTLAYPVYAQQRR

As for `CC(C)Cn1c(N2CCN(S(C)(=O)=O)CC2)nc2c(N3CCOCC3)nc(-c3cnc(N)nc3)nc21` [Example 1, 5-{9-Isobutyl-8-[4-(methylsulfonyl)piperazin-1-yl]-6-morpholin-4-yl-9H-purin-2-yl}pyrimidin-2-amine], at PI3Kα, the IC50 fell in the range of 10 to 20 nM. In addition, the GI50 in assay [1] is ≤ 5000 nM.

As for `CC(=O)N1CCN(c2nc3c(N4CCOCC4)nc(-c4cnc(N)nc4)nc3n2CC(C)C)CC1` [Example 2, 5-[8-(4-Acetylpiperazin-1-yl)-9-isobutyl-6-morpholin-4-yl-9H-purin-2-yl]pyrimidin-2-amine], on PI3Kα, the IC50 fell in the range of 10 to 20 nM. Moreover, in assay [1], the GI50 is ≤ 5000 nM.

On to `CS(=O)(=O)N1CCN(c2nc3c(N4CCOCC4)nc(-c4cnc(N)nc4)nc3n2CC2CC2)CC1` [Example 3, 5-{9-(Cyclopropylmethyl)-8-[4-(methylsulfonyl)piperazin-1-yl]-6-morpholin-4-yl-9H-purin-2-yl}pyrimidin-2-amine], for which, on PI3Kα, the IC50 was < 10 nM. The GI50 in assay [1] is ≤ 5000 nM. Besides, the inhibition at 10 mg/kg in assay [2] is > 90%.

As for `Cc1nc(N)ncc1-c1nc(N2CCOCC2)c2nc(N3CCN(S(C)(=O)=O)CC3)n(CC3CC3)c2n1` [Example 6, 5-{9-(Cyclopropylmethyl)-8-[4-(methylsulfonyl)piperazin-1-yl]-6-morpholin-4-yl-9H-purin-2-yl}-4-methylpyrimidin-2-amine], the IC50 at PI3Kα is < 10 nM. In addition, in assay [1], the GI50 is ≤ 5000 nM.

For `CS(=O)(=O)N1CCN(c2nc3c(N4CCOCC4)nc(-c4cnc(N)nc4)nc3n2CC(F)(F)F)CC1` [Example 8, 5-{8-[4-(Methylsulfonyl)piperazin-1-yl]-6-morpholin-4-yl-9-(2,2,2-trifluoroethyl)-9H-purin-2-yl}pyrimidin-2-amine], the IC50 at PI3Kα was < 10 nM. Also, the GI50 in assay [1] is ≤ 5000 nM. For the same compound, the inhibition at 10 mg/kg in assay [2] is > 90%.

`CC(=O)N1CCN(c2nc3c(N4CCOCC4)nc(-c4cnc(N)nc4)nc3n2CC2CC2)CC1` [Example 10, 5-[8-(4-Acetylpiperazin-1-yl)-9-(cyclopropylmethyl)-6-morpholin-4-yl-9H-purin-2-yl]pyrimidin-2-amine]: the IC50 on PI3Kα is < 10 nM. Further, the GI50 in assay [1] was ≤ 5000 nM.

With `CNc1ncc(-c2nc(N3CCOCC3)c3nc(N4CCN(S(C)(=O)=O)CC4)n(CC(F)(F)F)c3n2)cn1` [Example 11, N-Methyl-5-{8-[4-(methylsulfonyl)piperazin-1-yl]-6-morpholin-4-yl-9-(2,2,2-trifluoroethyl)-9H-purin-2-yl}pyrimidin-2-amine], the IC50 on PI3Kα lay within 10 to 20 nM. Further, in assay [1], the GI50 was ≤ 5000 nM.

Regarding `C[C@@H]1CN(c2nc3c(N4CCOCC4)nc(-c4cnc(N)nc4)nc3n2CC(F)(F)F)C[C@H](C)N1` [Example 14, 5-[8-(cis-3,5-Dimethylpiperazin-1-yl)-6-morpholin-4-yl-9-(2,2,2-trifluoroethyl)-9H-purin-2-yl]pyrimidin-2-amine], on PI3Kα, the IC50 was < 10 nM. The GI50 in assay [1] was ≤ 5000 nM.

As to `CC(C)Cn1c(N2CCN(S(C)(=O)=O)[C@@H](C)C2)nc2c(N3CCOCC3)nc(-c3cnc(N)nc3)nc21` [Example 53, 5-{9-Isobutyl-8-[(3S)-3-methyl-4-(methylsulfonyl)piperazin-1-yl]-6-morpholin-4-yl-9H-purin-2-yl}pyrimidin-2-amine], at PI3Kα, the IC50 was 10 to 20 nM. In addition, the GI50 in assay [1] is ≤ 5000 nM.

As to `CC(C)Cn1c(N2CCN(S(C)(=O)=O)[C@H](C)C2)nc2c(N3CCOCC3)nc(-c3cnc(N)nc3)nc21` [Example 54, 5-{9-Isobutyl-8-[(3R)-3-methyl-4-(methylsulfonyl)piperazin-1-yl]-6-morpholin-4-yl-9H-purin-2-yl}pyrimidin-2-amine], the IC50 on PI3Kα lay in the range of 10 to 20 nM. In addition, the GI50 in assay [1] is ≤ 5000 nM.

As to `CC(C)Cn1c(N2CCN(C(=O)CN(C)C)CC2)nc2c(N3CCOCC3)nc(-c3cnc(N)nc3)nc21` [Example 55, 5-(8-{4-[(Dimethylamino)acetyl]piperazin-1-yl}-9-isobutyl-6-morpholin-4-yl-9H-purin-2-yl)pyrimidin-2-amine], at PI3Kα, the IC50 was < 10 nM. Moreover, the GI50 in assay [1] is ≤ 5000 nM.

`CS(=O)(=O)C1CCN(c2nc3c(N4CCOCC4)nc(-c4cnc(N)nc4)nc3n2CC(F)(F)F)CC1` [Example 57, 5-{8-[4-(Methylsulfonyl)piperidin-1-yl]-6-morpholin-4-yl-9-(2,2,2-trifluoroethyl)-9H-purin-2-yl}pyrimidin-2-amine]: the IC50 at PI3Kα is < 10 nM. The GI50 in assay [1] was ≤ 5000 nM. Besides, the inhibition at 10 mg/kg in assay [2] was > 90%.

`CC(=O)N1CCN(c2nc3c(N4CCOCC4)nc(-c4cnc(N)nc4)nc3n2CC(F)(F)F)C[C@H]1C` [Example 60, 5-{8-[(3R)-4-Acetyl-3-methylpiperazin-1-yl]-6-morpholin-4-yl-9-(2,2,2-trifluoroethyl)-9H-purin-2-yl}pyrimidin-2-amine]: at PI3Kα, the IC50 is < 10 nM. For the same compound, the GI50 in assay [1] is ≤ 5000 nM. In assay [2], the inhibition at 10 mg/kg was > 90%.

For `C[C@@H]1CN(c2nc3c(N4CCOCC4)nc(-c4cnc(N)nc4)nc3n2CC(F)(F)F)CCN1S(C)(=O)=O` [Example 61, 5-{8-[(3R)-3-Methyl-4-(methylsulfonyl)piperazin-1-yl]-6-morpholin-4-yl-9-(2,2,2-trifluoroethyl)-9H-purin-2-yl}pyrimidin-2-amine], on PI3Kα, the IC50 was < 10 nM. Moreover, the GI50 in assay [1] is ≤ 5000 nM. The inhibition at 10 mg/kg in assay [2] is > 90%.

Regarding `C[C@H]1CN(c2nc3c(N4CCOCC4)nc(-c4cnc(N)nc4)nc3n2CC(F)(F)F)CCN1S(C)(=O)=O` [Example 62, 5-{8-[(3S)-3-Methyl-4-(methylsulfonyl)piperazin-1-yl]-6-morpholin-4-yl-9-(2,2,2-trifluoroethyl)-9H-purin-2-yl}pyrimidin-2-amine], on PI3Kα, the IC50 is < 10 nM. The GI50 in assay [1] is ≤ 5000 nM. For the same compound, the inhibition at 10 mg/kg in assay [2] is > 90%.

Consider `CC(=O)N1CCN(c2nc3c(N4CCOCC4)nc(-c4cnc(N)nc4)nc3n2CC(F)(F)F)C[C@@H]1C` [Example 63, 5-{8-[(3S)-4-Acetyl-3-methylpiperazin-1-yl]-6-morpholin-4-yl-9-(2,2,2-trifluoroethyl)-9H-purin-2-yl}pyrimidin-2-amine], for which the IC50 on PI3Kα was < 10 nM. Further, in assay [1], the GI50 was ≤ 5000 nM. In addition, in assay [2], the inhibition at 10 mg/kg was > 90%.

As to `CS(=O)(=O)N1CCN(c2nc3c(N4CCOCC4)nc(-c4cnc(N)nc4)nc3n2CC(F)F)CC1` [Example 64, 5-{9-(2,2-Difluoro-ethyl)-8-[4-(methylsulfonyl)piperazin-1-yl]-6-morpholin-4-yl-9H-purin-2-yl}pyrimidin-2-amine], on PI3Kα, the IC50 was 10 to 20 nM. In addition, the GI50 in assay [1] is ≤ 5000 nM. The inhibition at 10 mg/kg in assay [2] was > 90%.

As to `CNc1ncc(-c2nc(N3CCOCC3)c3nc(N4CCN(CC(=O)N(C)C)[C@H](C)C4)n(CC(F)(F)F)c3n2)cn1` [Example 87, N,N-Dimethyl-2-[(2R)-2-methyl-4-{2-[2-(methylamino)pyrimidin-5-yl]-6-morpholin-4-yl-9-(2,2,2-trifluoroethyl)-9H-purin-8-yl}piperazin-1-yl]acetamide], the IC50 at PI3Kα was < 10 nM. Moreover, the GI50 in assay [1] was ≤ 5000 nM.

Take `CC(=O)N1CCN(c2nc3c(N4CCOCC4)nc(-c4cnc(N)nc4)nc3n2CC(C)C)C[C@H]1C` [Example 99, 5-{8-[(3R)-4-Acetyl-3-methylpiperazin-1-yl]-9-isobutyl-6-morpholin-4-yl-9H-purin-2-yl}pyrimidin-2-amine]: the IC50 on PI3Kα lay within 10 to 20 nM. The GI50 in assay [1] was ≤ 5000 nM.

Turning to `C[C@H]1COCCN1c1nc(-c2cnc(N)nc2)nc2c1nc(N1CCN(S(C)(=O)=O)CC1)n2CC(F)(F)F` [Example 127, 5-{6-[(3S)-3-Methylmorpholin-4-yl]-8-[4-(methylsulfonyl)piperazin-1-yl]-9-(2,2,2-trifluoroethyl)-9H-purin-2-yl}pyrimidin-2-amine], on PI3Kα, the IC50 is < 10 nM. Moreover, in assay [1], the GI50 was ≤ 5000 nM.

On to `CC(=O)N1CCN(c2nc3c(N4CCOC[C@@H]4C)nc(-c4cnc(N)nc4C)nc3n2CC2CC2)CC1` [Example 128, 5-{8-(4-acetylpiperazin-1-yl)-9-(cyclopropylmethyl)-6-[(3S)-3-methylmorpholin-4-yl]-9H-purin-2-yl}-4-methylpyrimidin-2-amine], for which, at PI3Kα, the half-maximal inhibitory concentration (IC50) is 10 to 20 nM. Besides, the GI50 in assay [1] is ≤ 5000 nM.

A word on the IC50: it is the concentration needed to halve the response being measured. As a reminder, the inhibition is the relative decrease from the control value, in per cent.
